The experiment addresses T1, human Cystic Fibrosis Transmembrane Conductance Regulator (CFTR) harboring the ΔF508 mutation (Homo sapiens, UniProt P13569, DEL508-508).
T1 construct: expressed in transfected cells; host or cells: H441 carcinoma line (G418 selection)
Kind of experiment: H441 cell Emax and EC50: HRP-tagged ΔF508-CFTR cell surface luminescence assay. The format is cell-based. As to conditions: H441 cells expressing ΔF508-CFTR-HRP, 27° C., two nights; for EC50: 15-point dose-response, top 24.5 μM; for Emax: NCI-H441, % of maximum VX809 signal. The text has this: Two cell lines were used, the H441 carcinoma line and the CFHBE41o-(41o-) human bronchial epithelial line. Both cell lines expressed human Cystic Fibrosis Transmembrane Conductance Regulator (CFTR) harboring the ΔF508 mutation and with an in-frame fusion in CFTR extracellular loop 4 of Horse Radish Peroxidase (HRP) under control of the CMV promoter. In the presence of the HRP tag, ΔF508-CFTR transported to the cell surface was detectable upon addition of an HRP substrate (Luminata Forte). Both cell types were cultivated at 37° C. with CO2.
For both cell types, the medium was changed every other day unless the culture was at low % confluence. Cells were used for the assays at ˜75% confluence.
To a polypropylene (PP) 384-well plate, 15 μls DMSO was added to all wells in columns 1-22 and 24 (low Control). 15 μls of 260 μM VX809 (Lumacaftor), Selleckchem S1565, was added to column 23 wells (high Control). 15 μls of 10 mM test compound or VX809 (control) were added to wells of row A. Serial dilutions of Row A compound were performed 2×15 μls in rows A through O (15-point).
A PP, 384-well plate containing the appropriate cell culture medium was prepared for each assay plate with 100 μls per well. For the doxycycline-induced 41o-cells, doxycycline for both the assay plate and the medium dilution plate was added at 0.0005 mg/ml to the medium.
Both cell lines were plated for the assay at 30 uls per 384-well at 3.4×10^e5 cells per ml (˜10K cells/well). H441 cells were plated on opaque, white, Corning plate 3704. 41o-cells were plated on collagen-coated opaque, white, Corning plate 356665. For 41o-cells, doxycycline was added to the medium.
Using FX (Beckman) protocol, 10 uls diluted compound or medium was added per well to the Assay Plate as: 2 μls DMSO Dilution plate well is diluted in 100 uls of the Medium Dilution Plate well, mixed, and 10 uls is transferred to the Assay Plate.
The final assay dilution series is 24.5, 12.3, 6.1, 3.1, 1.5, 0.8, 0.4, 0.2, 0.1, 0.05, 0.02, 0.01, 0.006, 0.003, 0.001 and 0 μM. The 41o-assay plates were incubated at 37° C. w/CO2, the H441 assay plates were incubated at 27° C. w/CO2, each overnight for two nights.
After being brought to room temperature, the assay plate liquid was removed. 30 μls of Luminata Forte (Millipore ELLUF0100) was added per well and incubated at room temperature for 10 min. The plates were then read on a Topcount, protocol LumiMatti (CPS, luminescence). The data was analyzed for % of maximum, maximum VX809 signal, and EC50 using Pearl and SPEED tools.

For orientation: EC50 means the concentration at which the effect is half-maximal. Low readings indicate greater potency, high ones weaker potency. The Emax is the size of the effect at its maximum, as opposed to the concentration needed.

T1 sequence (P13569 with tags, fused parts or gaps DEL508-508): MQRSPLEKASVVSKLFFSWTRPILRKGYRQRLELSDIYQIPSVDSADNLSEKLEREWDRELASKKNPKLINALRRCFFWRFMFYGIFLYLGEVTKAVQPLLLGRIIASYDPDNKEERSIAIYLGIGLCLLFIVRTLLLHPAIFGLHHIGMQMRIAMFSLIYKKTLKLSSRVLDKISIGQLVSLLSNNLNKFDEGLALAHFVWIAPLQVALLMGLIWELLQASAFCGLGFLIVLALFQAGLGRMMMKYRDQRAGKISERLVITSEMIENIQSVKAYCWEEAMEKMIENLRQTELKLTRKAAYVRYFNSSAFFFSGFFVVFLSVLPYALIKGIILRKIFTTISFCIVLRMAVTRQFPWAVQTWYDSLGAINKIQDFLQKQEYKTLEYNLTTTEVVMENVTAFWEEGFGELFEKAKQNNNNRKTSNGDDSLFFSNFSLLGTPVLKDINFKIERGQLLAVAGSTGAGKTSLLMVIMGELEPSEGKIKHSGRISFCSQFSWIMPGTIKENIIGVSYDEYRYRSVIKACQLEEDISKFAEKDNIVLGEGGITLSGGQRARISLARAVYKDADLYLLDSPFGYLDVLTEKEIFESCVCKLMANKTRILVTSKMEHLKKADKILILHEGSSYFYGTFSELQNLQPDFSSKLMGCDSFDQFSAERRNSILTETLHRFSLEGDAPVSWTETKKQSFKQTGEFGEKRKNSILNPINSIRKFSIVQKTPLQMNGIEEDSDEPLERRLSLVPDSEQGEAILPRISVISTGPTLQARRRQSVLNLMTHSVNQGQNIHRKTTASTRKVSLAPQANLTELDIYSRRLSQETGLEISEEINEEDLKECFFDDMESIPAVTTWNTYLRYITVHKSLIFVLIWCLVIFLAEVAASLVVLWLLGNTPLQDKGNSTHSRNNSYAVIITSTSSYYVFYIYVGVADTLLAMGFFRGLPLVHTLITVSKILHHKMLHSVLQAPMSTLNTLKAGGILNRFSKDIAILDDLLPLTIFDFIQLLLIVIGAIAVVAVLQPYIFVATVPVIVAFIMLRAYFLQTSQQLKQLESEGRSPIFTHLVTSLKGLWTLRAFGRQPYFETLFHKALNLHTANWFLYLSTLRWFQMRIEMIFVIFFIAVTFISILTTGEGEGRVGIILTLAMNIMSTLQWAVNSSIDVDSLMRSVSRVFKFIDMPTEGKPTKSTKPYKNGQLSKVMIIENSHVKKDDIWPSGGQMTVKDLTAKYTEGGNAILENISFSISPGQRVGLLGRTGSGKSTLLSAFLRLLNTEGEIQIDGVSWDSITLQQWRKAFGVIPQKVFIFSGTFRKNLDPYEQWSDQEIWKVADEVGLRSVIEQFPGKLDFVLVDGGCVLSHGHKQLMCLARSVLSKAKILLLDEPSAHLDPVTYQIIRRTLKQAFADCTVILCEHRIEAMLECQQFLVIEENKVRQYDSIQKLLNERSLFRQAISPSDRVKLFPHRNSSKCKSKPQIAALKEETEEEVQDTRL

As for `COC(=O)[C@@H](NC(=O)c1ccc2ccccc2c1OCc1ccc(C(F)(F)F)cc1)C12CC3CC(CC(O)(C3)C1)C2` [compound 14], the EC50 is not below 24500 nM and the Emax was found to be 29.9%.
With `O=C(N[C@H](C(=O)O)C12CC3CC(CC(O)(C3)C1)C2)c1ccc2cc(F)ccc2c1OCc1ccc(S(F)(F)(F)(F)F)cc1` [compound 50], a half-maximal response (EC50) required 2170 nM and the Emax is 76.4%.
The like results for `O=C(N[C@H](C(=O)O)C12CC3CC(CC(C3)C1)C2)c1ccc2cc(O)ccc2c1OCc1ccc(C(F)(F)F)cc1` [compound 37] were, in that order, 155 nM and 132%.
Compound `O=C(N[C@H](C(=O)O)C12CC3CC(CC(C3)C1)C2)c1ccc2cc(F)ccc2c1OCc1ccc(SC(F)(F)F)cc1` [compound 57] yielded an EC50 of 296 nM and an Emax of 92.5%.
The like results for `CC(C)C#CCOc1c(C(=O)N[C@H](C(=O)O)C23CC4CC(CC(C4)C2)C3)ccc2cc(F)ccc12` [compound 72] were, in that order, 11200 nM and 92.7%.
The corresponding values for `O=C(N[C@H](C(=O)O)C12CC3CC(CC(C3)C1)C2)c1ccc2ccccc2c1NCc1ccc(SC(F)(F)F)cc1` [compound 123, (2S)-2-(1-adamantyl)-2-[[1-[[4-(trifluoromethylsulfanyl)phenyl]methylamino]naphthalene-2-carbonyl]amino]acetic acid] are 278 nM and 51.9%.
In turn, `O=C(O)[C@@H](N1CN(Cc2ccc(SC(F)(F)F)cc2)c2c(ccc3ccccc23)C1=O)C12CC3CC(CC(C3)C1)C2` [compound 126, (2S)-2-(1-adamantyl)-2-[4-oxo-1-[[4-(trifluoromethylsulfanyl)phenyl]methyl]-2H-benzo[h]quinazolin-3-yl]acetic acid] registered an EC50 of 477 nM and an Emax of 42.2%.
The like results for `O=C(N[C@H](C(=O)O)C12CC3CC(CC(C3)C1)C2)c1ccc2sccc2c1OCc1ccc(C(F)(F)F)cc1` [compound 112, (2S)-2-(1-adamantyl)-2-[[4-[[4-(trifluoromethyl)phenyl]methoxy]benzothiophene-5-carbonyl]amino]acetic acid] were, in that order, 360 nM and 190%.
The like results for `O=C(N[C@H](C(=O)O)C12CC3CC(CC(C3)C1)C2)c1ccc2ccccc2c1OC[C@H]1CC[C@@H](C(F)(F)F)CC1` [compound 70] were, in that order, 1860 nM and 97.4%.
The like results for `COC12CC3CC(C1)CC([C@H](NC(=O)c1ccc4ccccc4c1OCc1ccc(C(F)(F)F)cc1)C(=O)O)(C3)C2` [compound 85] were, in that order, 375 nM and 131%.
`O=C(N[C@H](C(=O)O)C12CC3CC(CC(O)(C3)C1)C2)c1ccc2cc(F)ccc2c1OCc1ccc(SC(F)(F)F)cc1` [compound 4]: a half-maximal response (EC50) required 991 nM and the Emax was 55.7%.
The like results for `O=C(N[C@H](C(=O)O)C12CC3CC(CC(OCCF)(C3)C1)C2)c1ccc2cc(F)ccc2c1OCc1ccc(C(F)(F)F)cc1` [compound 25] were, in that order, 228 nM and 106%.
The compound `COc1ccc2c(OCc3ccc(C(F)(F)F)cc3)c(C(=O)N[C@H](C(=O)O)C34CC5CC(CC(C5)C3)C4)ccc2c1` [compound 38] gave an EC50 of 131 nM and an Emax of 56.2%.
The like results for `O=C(N[C@H](C(=O)O)C12CC3CC(CC(C3)C1)C2)c1ccc2cc(F)ccc2c1OCC1CCCCC1` [compound 45] were, in that order, 939 nM and 142%.
The corresponding values for `O=C(N[C@H](C(=O)O)C12CC3CC(CC(C3)C1)C2)c1ccc2c(F)cccc2c1OCc1ccc(C(F)(F)F)cc1` [compound 1] are 206 nM and 176%.
The like results for `O=C(O)[C@@H](n1c(=O)c2ccc3ccccc3c2n(Cc2ccc(C(F)(F)F)cc2)c1=O)C12CC3CC(CC(C3)C1)C2` [compound 137, (2S)-2-(1-adamantyl)-2-[2,4-dioxo-1-[[4-(trifluoromethyl)phenyl]methyl]benzo[h]quinazolin-3-yl]acetic acid] were, in that order, 1600 nM and 5.3%.

These data come from US12637414B2, “Arylamides and methods of use thereof” (Genzyme Corporation, priority 2019, dated 2026).
